According to patent publication US6518304B1, “Fungicidal composition” (Sumitomo Chemical Company, Limited, priority 1993, dated 2003):
Where two headings read alike, the source gives them in different places.

Legend:
[1] = test system: grape powdery mildew fungus (Uncinula necator); assay: Test Example 14: grape powdery mildew, spray then inoculation; format: in vivo; settings: 1 ppm; grape plant, 3 weeks at 24° C.
[2] = test system: grape downy mildew fungus; assay: Test Example 7: grape downy mildew, foliage application then inoculation; settings: grape seedling
Experimental: (§1) Each of plastic pots was filled with sandy loam and sown with grape (Berry A), followed by growing in a greenhouse for 40 days. […] Then, the young seedling was inoculated with a suspension of zoosporangia of grape downy mildew fungus by spraying. After the inoculation, the young seedling was allowed to stand overnight at 23° C. and a high humidity and then grown in a greenhouse for 7 days, after which the infection rate (%) was investigated.

[3] = test system: gray mold fungi tolerant to benzimidazole type fungicidal compounds; assay: Test Example 12: cucumber gray mold, benzimidazole-tolerant (resistant) fungus; settings: cucumber seedling
Experimental: Each of plastic pots was filled with sandy loam and sown with cucumber (Sagamihanjiro), followed by growing in a greenhouse for 14 days. […] After air-drying, each of gray mold fungi sensitive and tolerant, respectively, to benzimidazole type fungicidal compounds was inoculated on the surfaces of leaves of the young seedling, and the young seedling was grown in the dark at 10° C. and a high humidity for 4 days, after which the infection rate (%) was investigated.

[4] = test system: grape downy mildew fungus; assay: Test Example 9: grape downy mildew, foliage application then inoculation; settings: grape seedling
Experimental: as §1

gray mold fungus [5] = assay: Test Example 11: cucumber gray mold, foliage application before inoculation; settings: cucumber seedling
Experimental: Each of plastic pots was filled with sandy loam and sown with cucumber (Sagamihanjiro), followed by growing in a greenhouse for 14 days. A wettable powder of test agents prepared according to Formulation Example 35 was diluted to a predetermined concentration with water, and foliage application of the dilution was carried out so as to adhere the dilution sufficiently to the surfaces of leaves of the grown cucumber young seedling. After air-drying, gray mold fungus was inoculated on the surfaces of leaves of the young seedling, and the young seedling was grown in the dark at 10° C. and a high humidity for 4 days, after which the infection rate (%) was investigated.

[6] = test system: tomato late blight fungus (Phytophthora infestans); format: in vivo; settings: 10 ppm; tomato plant, 1 week at 24° C.
gray mold fungus [7] = assay: Test Example 4: cucumber gray mold, foliage application after inoculation; settings: cucumber seedling, applied after inoculation
Experimental: Each of plastic pots was filled with sandy loam and sown with cucumber (Sagamihanjiro), followed by growing in a greenhouse for 14 days. Gray mold fungus was inoculated on the surfaces of leaves of the grown cucumber young seedling, and the young seedling was grown in the dark at 10° C. and a high humidity for 2 days and then at a temperature of 23° C. for 3 days. A wettable powder of test agents prepared according to Formulation Example 11 was diluted to a predetermined concentration with water, and foliage application of the dilution was carried out so as to adhere the dilution sufficiently to the surfaces of leaves of the cucumber young seedling. After the spraying, the young seedling was grown in the dark at 10° C. and a high humidity for 3 days, and then the infection rate (%) was investigated.

apple scab fungus [8] = assay: Test Example 13: apple scab, foliage application then inoculation; format: in vivo, Venturia inaequalis; settings: apple seedling
[9] = test system: gray mold fungi tolerant to benzimidazole type fungicidal compounds; assay: Test Example 17: cucumber gray mold, benzimidazole-tolerant (resistant) fungus; settings: cucumber seedling
Experimental: (§2) Each of plastic pots was filled with sandy loam and sown with cucumber (Sagamihanjiro), followed by growing in a greenhouse for 14 days. A wettable powder of test agents prepared according to Formulation Example 59 was diluted to a predetermined concentration with water, and foliage application of the dilution was carried out so as to adhere the dilution sufficiently to the surfaces of leaves of the grown cucumber young seedling. After air-drying, each of gray mold fungi sensitive and tolerant, respectively, to benzimidazole type fungicidal compounds was inoculated on the surfaces of leaves of the young seedling, and the young seedling was grown in the dark at 10° C. and a high humidity for 4 days, after which the infection rate (%) was investigated.

[10] = test system: grape downy mildew fungus; assay: Test Example 6: grape downy mildew, foliage application then inoculation; settings: grape seedling
Experimental: as §1

[11] = test system: tomato late blight fungus (Phytophthora infestans); format: in vivo; settings: 10 ppm; tomato plant, 1 week at 24° C.; remark: listed apart in the source
[12] = test system: grape downy mildew fungus (Plasmopara viticola); assay: Test Example 2: grape downy mildew, spray then inoculation, infection rate; format: in vivo; settings: 10 ppm; grape plant, 1 week at 24° C.
Source text: A grape plant (cultivar: Berry A) was planted in each pot and was sprayed with a sufficient volume of a dilution with a predetermined concentration of a wettable powder obtained according to Formulation Example 5, after the plant put out a fourth leaf.

gray mold fungus [13] = assay: Test Example 3: cucumber gray mold, foliage application before inoculation; settings: cucumber seedling, applied before inoculation, 4 days
Experimental: Each of plastic pots was filled with sandy loam and sown with cucumber (Sagamihanjiro), followed by growing in a greenhouse for 14 days. A wettable powder of test agents prepared according to Formulation Example 11 was diluted to a predetermined concentration with water, and foliage application of the dilution was carried out so as to adhere the dilution sufficiently to the surfaces of leaves of the grown cucumber young seedling. After air-drying, gray mold fungus was inoculated on the surfaces of leaves of the young seedling, and the young seedling was grown in the dark at 10° C. and a high humidity for 4 days, after which the infection rate (%) was investigated.

[14] = test system: grape powdery mildew fungus (Uncinula necator); assay: Test Example 16: grape powdery mildew, spray then inoculation; format: in vivo; settings: 10 ppm; grape plant, 3 weeks at 24° C.
apple scab fungus [15] = assay: Test Example 8: apple scab, foliage application then inoculation; format: in vivo, Venturia inaequalis; settings: apple seedling
[16] = test system: tomato late blight fungus; format: in vivo, Phytophthora infestans; settings: tomato seedling
[17] = test system: tomato late blight fungus; format: in vivo, Phytophthora infestans; settings: tomato seedling; remark: listed apart in the source
[18] = test system: gray mold fungi sensitive to benzimidazole type fungicidal compounds; assay: Test Example 17: cucumber gray mold, benzimidazole-sensitive fungus; settings: cucumber seedling
Experimental: as §2

[19] = test system: gray mold fungi sensitive to benzimidazole type fungicidal compounds; assay: Test Example 12: cucumber gray mold, benzimidazole-sensitive fungus; settings: cucumber seedling
Experimental: Each of plastic pots was filled with sandy loam and sown with cucumber (Sagamihanjiro), followed by growing in a greenhouse for 14 days. A wettable powder of test agents prepared according to Formulation Example 41 was diluted to a predetermined concentration with water, and foliage application of the dilution was carried out so as to adhere the dilution sufficiently to the surfaces of leaves of the grown cucumber young seedling. After air-drying, each of gray mold fungi sensitive and tolerant, respectively, to benzimidazole type fungicidal compounds was inoculated on the surfaces of leaves of the young seedling, and the young seedling was grown in the dark at 10° C. and a high humidity for 4 days, after which the infection rate (%) was investigated.

## CNC(=O)C(=NOC)c1ccccc1COc1ccc(Cl)cc1Cl [Compound (Id), N-methyl-α-methoxyimino-2-[(2,4-dichlorophenoxy)methyl]phenylacetamide]
[1]
  Infection rate (%): 25%
[2]; 10 ppm
  Infection rate (%): 20%
[3]; 200 ppm
  Infection rate (%) Resistant fungus: 20%
[4]; 40 ppm
  Infection rate (%): 20%
Gray mold fungus [5]; 200 ppm
  Infection rate (%): 20%
[6]
  Infection rate (%): 25%
Gray mold fungus [7]; 200 ppm
  Infection rate (%): 20%
Apple scab fungus [8]; 5 ppm
  Infection rate (%): 20%
[9]; 200 ppm
  Infection rate (%) Resistant fungus: 20%
[10]; 5 ppm
  Infection rate (%): 25%
[11]
  Infection rate (%): 25%
[12]
  Infection rate (%): 25%
Gray mold fungus [13]; 200 ppm
  Infection rate (%): 20%
[14]
  Infection rate (%): 25%
Apple scab fungus [15]; 5 ppm
  Infection rate (%): 25%
[16]; 40 ppm
  Infection rate (%): 20%
[17]; 40 ppm
  Infection rate (%): 20%
[18]; 200 ppm
  Infection rate (%) Sensitive fungus: 20%
[19]; 200 ppm
  Infection rate (%) Sensitive fungus: 20%

## CNC(=O)C(=NOC)c1ccccc1COc1cc(C)ccc1C [Compound (Ie), N-methyl-α-methoxyimino-2-[(2,5-dimethylphenoxy)methyl]phenylacetamide]
[1]
  Infection rate (%): 25%
[2]; 2 ppm
  Infection rate (%): 20%
[3]; 20 ppm
  Infection rate (%) Resistant fungus: 25%
[4]; 10 ppm
  Infection rate (%): 25%
Gray mold fungus [5]; 20 ppm
  Infection rate (%): 25%
[6]
  Infection rate (%): 25%
Gray mold fungus [7]; 20 ppm
  Infection rate (%): 25%
Apple scab fungus [8]; 0.5 ppm
  Infection rate (%): 20%
[9]; 20 ppm
  Infection rate (%) Resistant fungus: 25%
[10]; 1 ppm
  Infection rate (%): 25%
[11]
  Infection rate (%): 25%
[12]
  Infection rate (%): 25%
Gray mold fungus [13]; 20 ppm
  Infection rate (%): 25%
[14]
  Infection rate (%): 25%
Apple scab fungus [15]; 0.5 ppm
  Infection rate (%): 20%
[16]; 10 ppm
  Infection rate (%): 20%
[17]; 5 ppm
  Infection rate (%): 25%
[18]; 20 ppm
  Infection rate (%) Sensitive fungus: 25%
[19]; 20 ppm
  Infection rate (%) Sensitive fungus: 25%
